Reference: US10792282B2, “Protein kinase C inhibitors and uses thereof” (Rigel Pharmaceuticals, Inc., priority 2013, dated 2020)
Where two headings read alike, the source gives them in different places.

Tested on: PKC mediated IL-2 production
Experiment: IL-2 ELISA, human primary T cell, anti CD3+CD28+ (whole cell functional assay)
Format: cell-based
Procedure: Human primary T cells were prepared as follows. Fresh PBMC's from All Cells (Cat # PB002) were re-suspended in RPMI (RPMI-1640 with L-Glutamine; Mediatech, Inc., Herndon Va., cat. #10-040-CM) with 10% FBS and seeded into flasks and incubated at 37° C. for 2 hours to allow the monocytes to adhere. The non-adherent cells were then centrifuged and re-suspended in RPMI medium containing 40 U/ml IL2 and seeded into a flask pre-coated with 1 μg/ml aCD3 and 5 ug/ml aCD28 (Anti-Human CD3, BD Pharmingen Catalog #555336, Anti-Human CD28, Beckman Coulter Catalog # IM1376). The cells were stimulated for 3-4 days, then transferred to a fresh flask and maintained in RPMI (RPMI-1640 with L-Glutamine; Mediatech, Inc., Herndon Va., cat. #10-040-CM) with 10% FBS and 40 U/ml IL-2.
(§1) Human primary T cells (100,000 cells per well) were pre-incubated with or without test compound in RPMI-1640 with L-Glutamine and 10% FBS for 1 hour at 37° C. Cells were then stimulated by transferring them to round-bottom 96-well plates pre-coated with 1 μg/ml αCD3 and 5 μg/ml αCD28. For counter assay, cells were instead stimulated by adding 8× stock solutions of PMA and ionomycin in RPMI-1640 with L-Glutamine and 10% FBS (for final concentrations of 0.5 ng/ml PMA and 0.1 μM ionomycin, both from Calbiochem). Cells were incubated at 37° C. for 24 hours before 100 μL supernatants were harvested for quantification of IL-2 by ELISA using Human IL-2 Duoset ELISA Kit from R and D Systems, Cat. # DY202E.
Compounds 1-90 were tested in a whole cell functional assay for PKC mediated IL-2 production as follows. Human primary T cell isolation and culture: Human primary T cells were prepared as follows. Whole blood was obtained from a healthy volunteer, mixed 1:1 with PBS, layered on to Ficoll Hypaque (Amersham Pharmacia Biotech, Piscataway, N.J., Catalog #17-1440-03) in 2:1 blood/PBS:ficoll ratio and centrifuged for 30 minutes at 4° C. at 1750 rpm. The cells at the serum: ficoll interface were recovered and washed twice with 5 volumes of PBS. These freshly isolated human peripheral blood mononuclear cells were cultured in Yssel's medium containing 40 U/ml IL2 in a flask pre-coated with 1 μg/ml αCD3 and 5 μg/ml αCD28 (Anti-Human CD3, BD Pharmingen Catalog #555336, Anti-Human CD28, Beckman Coulter Catalog # IM1376). The cells were stimulated for 3-4 days, then transferred to a fresh flask and maintained in RPMI (RPMI-1640 with L-Glutamine; Mediatech, Inc., Herndon Va., cat. #10-040-CM) with 10% FBS and 40 U/ml IL-2. The primary T-cells were then washed twice with PBS to remove the IL-2.
as §1, with “Primary T cell stimulation and IL2 ELISA: Human primary” for “Human primary”, “compound in Yssel's medium for 1” for “compound in RPMI-1640 with L-Glutamine and 10% FBS for 1”, “ionomycin in Yssels (for final” for “ionomycin in RPMI-1640 with L-Glutamine and 10% FBS (for final”, “and 0.1 uM ionomycin, both” for “and 0.1 μM ionomycin, both”

[1] = Homo sapiens, T-cell, 24 h, IL-2 production, human primary T cells stimulated with αCD3 and αCD28, 24 hours, IL-2 by ELISA, read-out: EC50
[2] = Homo sapiens, T-cell, human primary T cells stimulated with αCD3 and αCD28, IL-2 by ELISA, read-out: EC50 (blocked IL-2 production)
[3] = IL-2 production, human primary T cells stimulated with αCD3 and αCD28, 24 hours, IL-2 by ELISA, read-out: EC50

SMILES	EC50 [1]	EC50 [2]	EC50 [3]
Cn1nnn(-c2cc(Nc3ncc(C#N)c(NC4CC5CCCN5C(C)(C)C4)n3)c(F)cc2C2CC2)c1=O (stereo not shown) [Compound 66, 4-((R/S,S/R)-Octahydro-5,5-dimethylindolizin-7-ylamino)-2-(4-cyclopropyl-2-fluoro-5-(4,5-dihydro-4-methyl-5-oxotetrazol-yl)phenylamino) pyrimidine-5-carbonitrile]	–	–	< 0.1 µM
CC(C)N1CCC(Oc2ccc(Nc3ncc(F)c(NC4CC5CCCN5C(C)(C)C4)n3)cc2OC(F)F)CC1 (stereo not shown) [Compound 8, (R/S, S/R, R/R, S/S)—N^2-(4-(1-isopropylpiperidin-4-yloxy)-3-(difluoromethoxy)phenyl)-5-fluoro-N^4-(octahydro-5,5-dimethylindolizin-7-yl)pyrimidine-2,4-diamine]	–	–	< 1 µM
Cn1nnn(-c2cc(Nc3ncc(F)c(N[C@@H]4C[C@@H]5CCCN5C(C)(C)C4)n3)c(F)cc2OCC(C)(C)O)c1=O [Compound 87, 1-(5-(4-((7R,8aS)-5,5-dimethyloctahydroindolizin-7-ylamino)-5-fluoropyrimidin-2-ylamino)-4-fluoro-2-(2-hydroxy-2-methylpropoxy)phenyl)-4-methyl-1H-tetrazol-5(4H)-one]	< 0.1 µM	< 10 µM	–
Cn1nnn(-c2cc(Nc3ncc(F)c(NC4CCN5C(CCC5(C)C)C4)n3)c(F)cc2C2CC2)c1=O (stereo not shown) [Compound 26]	< 10 µM	< 10 µM	–
CC1(C)CC(Nc2nc(Nc3ccc(O[C@H]4CCOC4)c(C#N)c3)ncc2F)CC2CCCN21 (single isomer, unassigned) [Compound 62]	–	–	< 0.5 µM
Cn1nnn(-c2cc(Nc3ncc(F)c(N[C@@H]4C[C@@H]5C[C@@H](O)CN5C(C)(C)C4)n3)c(F)cc2C2CC2)c1=O [Compound 68, 1-(5-(4-((2R,7R,8aR)-2-hydroxy-octahydro-5,5-dimethylindolizin-7-ylamino)-5-fluoropyrimidin-2-ylamino)-2-cyclopropyl-4-fluorophenyl)-4-methyl-1H-tetrazol-5(4H)-one]	< 0.5 µM	< 10 µM	–
Cc1nnnn1-c1cc(Nc2ncc(F)c(NC3CCN4CCCC4C3)n2)c(F)cc1C1CC1 (racemic) [Compound 28, (±)-N2-(4-cyclopropyl-2-fluoro-5-(5-methyl-1H-tetrazol-1-yl)phenyl)-5-fluoro-n^4-(octahydroindolizin-7-yl)pyrimidine-2,4-diamine]	< 0.1 µM	< 10 µM	–
Cn1nnn(-c2cc(Nc3ncc(C#N)c(N[C@@H]4CC5CCCN5C(C)(C)C4)n3)c(F)cc2C2CC2)c1=O (stereo partly shown) [Compound 76]	< 0.1 µM	< 10 µM	–
Cn1nnn(-c2cc(Nc3ncc(F)c(N[C@@H]4C[C@@H]5CCCN5C(C)(C)C4)n3)ccc2OC2CCOCC2)c1=O [Compound 52, 1-(5-(5-fluoro-4-(octahydro-5,5-dimethylindolizin-7-ylamino)pyrimidin-2-ylamino)-2-(tetrahydro-2H-pyran-4-yloxy)phenyl)-4-methyl-1H-tetrazol-5(4H)-one]	< 0.5 µM	< 10 µM	–
Cn1nnn(-c2cc(Nc3ncc(F)c(NC4CC5CCCN5C(C)(C)C4)n3)ccc2OC2COC2)c1=O (single isomer, unassigned) [Compound 39, 1-(5-(5-fluoro-4-(octahydro-5,5-dimethylindolizin-7-ylamino)pyrimidin-2-ylamino)-2-(oxetan-3-yloxy)phenyl)-4-methyl-1H-tetrazol-5(4H)-one]	–	< 10 µM	< 0.5 µM
Cc1ncc(Nc2ncc(F)c(NC3CC4CCCN4C(C)(C)C3)n2)cc1-n1nnnc1C (stereo not shown) [Compound 15]	–	–	< 0.5 µM
CC(C)N1CCC(Oc2ccc(Nc3ncc(F)c(NC4CC5CCCN5C(C)(C)C4)n3)cc2OC(F)F)CC1 (stereo not shown) [Compound 6, (R/S, S/R, R/R, S/S)—N^2-(4-(1-isopropylpiperidin-4-yloxy)-3-(difluoromethoxy)phenyl)-5-fluoro-N^4-(octahydro-5,5-dimethylindolizin-7-yl)pyrimidine-2,4-diamine]	–	–	< 0.5 µM
Cn1nnn(-c2cc(Nc3ncc(F)c(N[C@@H]4C[C@@H]5CCCN5C(C)(C)C4)n3)c(F)cc2OC(C)(C)CO)c1=O [Compound 85, 1-(2-(1-hydroxy-2-methylpropan-2-yloxy)-5-(4-((7R,8aS)-octahydro-5,5-dimethylindolizin-7-ylamino)-5-fluoropyrimidin-2-ylamino)-4-fluorophenyl)-4-methyl-1H-tetrazol-5(4H)-one]	< 0.5 µM	< 10 µM	–

Further lines, results first:

EC50 [1]	EC50 [2]	EC50 [3]	SMILES
< 0.5 µM	< 10 µM	–	Cn1nnn(-c2cc(Nc3ncc(F)c(NC4CC5CCCN5C(C)(C)C4)n3)ccc2OC2CCOCC2)c1=O (racemic) [Compound 51, 1-(5-(5-fluoro-4-(octahydro-5,5-dimethylindolizin-7-ylamino)pyrimidin-2-ylamino)-2-(tetrahydro-2H-pyran-4-oxy)phenyl)-4-methyl-1H-tetrazol-5(4H)-one]
< 0.1 µM	< 10 µM	–	Cn1nnn(-c2cc(Nc3ncc(C#N)c(N[C@@H]4C[C@@H]5CCCN5C(C)(C)C4)n3)c(F)cc2OCCO)c1=O [Compound 78, 4-((7R,8aS)-octahydro-5,5-dimethylindolizin-7-ylamino)-2-(4-(2-hydroxyethoxy)-2-fluoro-5-(4,5-dihydro-4-methyl-5-oxotetrazol-1-yl)phenylamino)pyrimidine-5-carbonitrile]
< 0.1 µM	< 10 µM	–	Cn1nnn(-c2cc(Nc3ncc(C#N)c(N[C@@H]4C[C@@H]5CCCN5C(C)(C)C4)n3)ccc2OC(C)(C)CO)c1=O [Compound 83, 4-((7R,8aS)-octahydro-5,5-dimethylindolizin-7-ylamino)-2-(4-(1-hydroxy-2-methylpropan-2-yloxy)-3-(4,5-dihydro-4-methyl-5-oxotetrazol-1-yl)phenylamino)pyrimidine-5-carbonitrile]
< 0.1 µM	< 10 µM	–	Cn1nnn(-c2cc(Nc3ncc(F)c(N[C@@H]4C[C@@H]5CCCN5C(C)(C)C4)n3)ccc2O[C@@H]2CCOC2)c1=O [Compound 48, 1-(2-((R)-tetrahydrofuran-3-yloxy)-5-(5-fluoro-4-(octahydro-5,5-dimethylindolizin-7-ylamino)pyrimidin-2-ylamino)phenyl)-4-methyl-1H-tetrazol-5(4H)-one]
< 0.5 µM	< 10 µM	–	Cn1nnn(-c2cc(Nc3ncc(F)c(N[C@@H]4C[C@@H]5C[C@H](F)CN5C(C)(C)C4)n3)c(F)cc2C2CC2)c1=O [Compound 67, 1-(5-(4-((2S,7R,8aR)-2-fluoro-octahydro-5,5-dimethylindolizin-7-ylamino)-5-fluoropyrimidin-2-ylamino)-2-cyclopropyl-4-fluorophenyl)-4-methyl-1H-tetrazol-5(4H)-one]
< 10 µM	< 10 µM	–	Cn1nnn(-c2cc(Nc3ncc(F)c(N[C@@H]4C[C@@H]5CCCN5C(C)(C)C4)n3)c(F)cc2O)c1=O [Compound 89, 1-(5-(4-((7R,8aS)-octahydro-5,5-dimethylindolizin-7-ylamino)-5-fluoropyrimidin-2-ylamino)-4-fluoro-2-hydroxyphenyl)-4-methyl-1H-tetrazol-5(4H)-one]
–	–	< 10 µM	CC(C)N1CCC(Oc2ccc(Nc3ncc(F)c(NC4CC5CCCN5C(C)(C)C4)n3)cc2OC(F)F)CC1 (stereo not shown) [Compound 7, (R/S, S/R, R/R, S/S)—N^2-(4-(1-isopropylpiperidin-4-yloxy)-3-(difluoromethoxy)phenyl)-5-fluoro-N^4-(octahydro-5,5-dimethylindolizin-7-yl)pyrimidine-2,4-diamine]
